Consider 3 molecules from PMC7215373, “Design, Synthesis, and Anticancer Evaluation of Novel Indole Derivatives of Ursolic Acid as Potential Topoisomerase II Inhibitors” (International Journal of Molecular Sciences, 2020).

Like-named read-outs stand apart in the source and are kept apart here.

For data set [1], the system named is LO2 cells. Briefly: MTT cytotoxicity assay, normal hepatocyte LO2. As to conditions: Homo sapiens, L02, 48 h exposure, normal hepatocyte cell line. Format: cell-based. The protocol: (§1) The in vitro cytotoxic activities of synthesized compounds were evaluated against two human hepatocarcinoma cell lines (SMMC-7721 and HepG2) and the human normal hepatocyte cell line (LO2) via MTT assay. All tested compounds were dissolved in DMSO and the stock solutions were diluted by DMEM medium before treatment of the cultured cells. […] Cell lines were obtained from American Tissue Culture Collection (ATCC). Briefly, different tumor cells were grown in DMEM medium supplemented with 10% fetal bovine serum, penicillin (100 U/mL), and streptomycin (50 μg/mL). Cells were harvested at log phase of growth and seeded in 96-well plates (100 μL/well at a density of 2 × 10^5 cells/mL). After 24 h incubation at 37 °C and 5% CO2 to allow cell attachment, cultures were exposed to various concentrations of the isolated compounds for 48 h. Finally, MTT solution (2.5 mg/mL in PBS) was added (40 μL/well). Plates were further incubated for 4 h at 37 °C, and the formazan crystals formed were dissolved by adding 150 μL/well of DMSO. Absorption at 570 nm was measured with an ELISA plate reader. […] Doxorubicin, camptothecin, and etoposide (VP-16) were co-assayed as positive controls.
(Formazan colour is commonly taken as a measure of viable cells.)

The subject of data set [2] is HepG2 cells. Description: MTT cytotoxicity assay, HepG2. It counts as cell-based, human. As to conditions: 48 h exposure. How it is done: as §1
The subject of data set [3] is SMMC-7721 cells. Description: MTT cytotoxicity assay, SMMC-7721. Conditions: 48 h exposure. Format: cell-based, human. How it is done:
as §1

The test system of data set [4] is SMMC-7721 cells. On the set-up: method as in PMID 25537271. Conditions: earlier in vitro cytotoxic assay; read-out: IC50 against SMMC-7721; cited from earlier work.
Data set [5] has as its target T1, Human Topoisomerase IIα (Homo sapiens, UniProt P11388).
T1 construct: purchased USB, Affymetrix, Waltham, MA, USA
Description: Topoisomerase II relaxation assay (supercoiled pBR322). Format: biochemical. Conditions: for inhibition at 20 µM: 20 μM compound, read-out: Topo II Inhibition (%) 20 μM; for inhibition at 100 µM: 100 μM compound, read-out: Topo II Inhibition (%) 100 μM. How it is done:
The effect of the tested compounds on Topo I and II activities were evaluated by Topo I/II relaxation assays. The reaction products, relaxed DNA could be distinguished from supercoiled DNA by gel electrophoresis and visualized using gel imaging system. Human Topoisomerase IIα activity was detected by measuring the relaxation of supercoiled pBR322 plasmid DNA [22]. […] For inhibition studies, the compounds were pre-incubated with human Topo IIα and DNA for 15 min. Compounds were used at the appropriate concentrations by dissolving in 2% (v/v) DMSO. DMSO didn't show detrimental effect on the enzyme activity at concentration up to 2% (v/v). Reaction mixture was incubated at 37 °C for 30 min and stopped by the addition of 7 mM EDTA. Reaction product was mixed with DNA loading dye and electrophoresed on 1% TAE-Agarose. The gel was stained with ethidium bromide (0.5 μg/mL) for 30 min, destained twice in 1× TAE buffer, and then visualized using a BIO-RAD Gel Doc XR+ System. Etoposide (VP-16) was co-assayed as a positive control.

The subject of data set [6] is HepG2 cells. Set-up: method as in PMID 25537271. As to conditions: earlier in vitro cytotoxic assay; read-out: IC50 against HepG2; cited from earlier work.
Data set [7] has as its target T2, DNA topoisomerase I (Bos taurus, UniProt F1MN93).
T2 construct: purchased TaKaRa, Kyoto, Japan
T2 sequence (F1MN93 1-767): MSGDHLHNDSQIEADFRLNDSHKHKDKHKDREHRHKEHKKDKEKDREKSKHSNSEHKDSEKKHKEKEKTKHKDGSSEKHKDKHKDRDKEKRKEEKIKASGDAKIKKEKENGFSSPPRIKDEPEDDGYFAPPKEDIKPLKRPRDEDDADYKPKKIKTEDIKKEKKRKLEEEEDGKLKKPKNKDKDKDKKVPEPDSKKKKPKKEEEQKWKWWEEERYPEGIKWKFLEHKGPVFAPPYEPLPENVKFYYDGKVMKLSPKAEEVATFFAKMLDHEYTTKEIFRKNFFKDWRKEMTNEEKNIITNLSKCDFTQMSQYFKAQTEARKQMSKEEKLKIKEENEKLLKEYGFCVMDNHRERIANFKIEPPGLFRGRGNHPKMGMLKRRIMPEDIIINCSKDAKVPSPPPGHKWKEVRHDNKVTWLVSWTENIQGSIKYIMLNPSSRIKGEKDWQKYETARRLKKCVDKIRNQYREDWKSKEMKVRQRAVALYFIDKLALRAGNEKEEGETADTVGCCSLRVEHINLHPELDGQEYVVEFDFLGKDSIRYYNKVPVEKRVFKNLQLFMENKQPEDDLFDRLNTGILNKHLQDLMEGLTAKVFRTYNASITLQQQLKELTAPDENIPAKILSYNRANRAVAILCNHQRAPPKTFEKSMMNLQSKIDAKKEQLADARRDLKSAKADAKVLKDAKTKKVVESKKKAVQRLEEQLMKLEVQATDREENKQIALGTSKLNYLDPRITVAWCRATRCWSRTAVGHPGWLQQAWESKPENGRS
Description: Topoisomerase I relaxation assay (supercoiled pBR322). It counts as biochemical. Conditions: for inhibition at 20 µM: 20 μM compound, read-out: Topo I Inhibition (%) 20 μM; for inhibition at 100 µM: 100 μM compound, read-out: Topo I Inhibition (%) 100 μM. The protocol:
The effect of the tested compounds on Topo I and II activities were evaluated by Topo I/II relaxation assays. The reaction products, relaxed DNA could be distinguished from supercoiled DNA by gel electrophoresis and visualized using gel imaging system. The activity of DNA topoisomerase I (TaKaRa, Kyoto, Japan) was determined by measuring the relaxation of supercoiled DNA pBR322 [32]. Camptothecin was used as a positive control. The reaction mixture was prepared according to the manufacture's protocol, and incubated at 37 °C for 30 min. The reactions were terminated by adding dye solution containing 1% SDS, 0.02% bromophenol blue and 50% glycerol. The mixtures were applied to 1% agarose gel and subjected to electrophoresis for 1 h, in 1× TAE buffer (40 mM Tris-acetate, 1 mM EDTA). Gels were stained for 30 min in 60 mL 1× TAE buffer with ethidium bromide (0.5 μg/mL). DNA bands were visualized by transillumination with UV light and then photographed by a Gel Doc XR+ System (BIO-RAD, Hercules, CA, USA).

T1 sequence (P11388 whole entry): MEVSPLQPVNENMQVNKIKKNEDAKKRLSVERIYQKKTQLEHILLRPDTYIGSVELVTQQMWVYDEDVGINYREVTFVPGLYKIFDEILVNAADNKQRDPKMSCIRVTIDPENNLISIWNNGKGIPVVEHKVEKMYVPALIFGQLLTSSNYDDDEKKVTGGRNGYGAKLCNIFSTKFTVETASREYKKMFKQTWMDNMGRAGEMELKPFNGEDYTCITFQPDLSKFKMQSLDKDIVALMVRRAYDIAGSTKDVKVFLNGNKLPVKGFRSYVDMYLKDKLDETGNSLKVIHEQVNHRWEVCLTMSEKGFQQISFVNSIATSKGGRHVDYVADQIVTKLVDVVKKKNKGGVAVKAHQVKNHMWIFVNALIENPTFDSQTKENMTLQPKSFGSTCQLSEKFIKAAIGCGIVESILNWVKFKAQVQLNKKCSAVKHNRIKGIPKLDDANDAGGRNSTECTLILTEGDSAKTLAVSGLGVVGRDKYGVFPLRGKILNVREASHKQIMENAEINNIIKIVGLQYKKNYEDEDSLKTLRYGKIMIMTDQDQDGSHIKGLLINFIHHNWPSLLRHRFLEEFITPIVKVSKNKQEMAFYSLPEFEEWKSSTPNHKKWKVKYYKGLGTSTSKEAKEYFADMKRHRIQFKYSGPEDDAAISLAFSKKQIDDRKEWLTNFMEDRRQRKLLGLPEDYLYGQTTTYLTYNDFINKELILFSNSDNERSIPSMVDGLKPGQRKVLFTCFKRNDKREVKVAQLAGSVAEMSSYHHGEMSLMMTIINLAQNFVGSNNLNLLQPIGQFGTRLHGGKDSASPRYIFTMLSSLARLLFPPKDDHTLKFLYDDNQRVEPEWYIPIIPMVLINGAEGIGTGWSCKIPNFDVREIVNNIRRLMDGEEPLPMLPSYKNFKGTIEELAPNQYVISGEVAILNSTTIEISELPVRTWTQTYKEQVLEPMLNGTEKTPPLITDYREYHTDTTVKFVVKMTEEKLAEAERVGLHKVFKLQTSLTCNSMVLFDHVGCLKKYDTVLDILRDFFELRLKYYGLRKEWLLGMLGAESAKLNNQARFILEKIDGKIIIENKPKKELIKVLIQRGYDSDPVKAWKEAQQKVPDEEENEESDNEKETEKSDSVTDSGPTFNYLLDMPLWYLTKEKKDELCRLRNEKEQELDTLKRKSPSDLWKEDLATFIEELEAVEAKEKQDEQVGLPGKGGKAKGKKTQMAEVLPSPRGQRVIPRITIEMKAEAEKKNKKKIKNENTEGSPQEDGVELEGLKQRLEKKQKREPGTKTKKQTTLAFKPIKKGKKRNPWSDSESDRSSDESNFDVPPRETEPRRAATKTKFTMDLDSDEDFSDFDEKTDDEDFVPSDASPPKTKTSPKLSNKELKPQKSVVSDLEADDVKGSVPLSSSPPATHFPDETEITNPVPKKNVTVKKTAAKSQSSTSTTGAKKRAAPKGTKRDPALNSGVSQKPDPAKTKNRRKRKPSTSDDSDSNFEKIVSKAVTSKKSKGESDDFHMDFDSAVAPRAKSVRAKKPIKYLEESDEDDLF

Take `Cc1ccc2[nH]c3c(c2c1)C[C@@]1(C)C(CC[C@]2(C)C1CC=C1C4[C@@H](C)[C@H](C)CC[C@]4(C(=O)NCCCN(C)C)CC[C@]12C)C3(C)C` (some centres unmarked) [5b, N-(3-(Dimethylamino)propyl)-5′-methyl-1′H-ursa-2,12-dieno[3,2-b]indol-28-carboxamide]: the half-maximal inhibitory concentration (IC50) (usually the concentration that gives 50% inhibition) in data set [1] is 20.7 ± 1.73 µM; in data set [2] (Homo sapiens, HepG2, 48 h), 1.26 ± 0.17 µM; in data set [3] (Homo sapiens, SMMC-7721, 48 h), 1.08 ± 0.22 µM; in data set [4], approximately 1 µM; in data set [6] it was approximately 1 µM. For the same molecule, the inhibition (usually how much of the control response was suppressed) at 20 µM worked out at 38.2% in data set [5] and 9% in data set [7]. Moreover, the inhibition at 100 µM worked out at 72.5% in data set [5] and 34.2% in data set [7]. In addition, the “inhibitory activity to Topo IIα” value in data set [5] (preliminary screening) is listed as “considerable inhibitory activity”. The “inhibitory activity to Topo I” value in data set [7] (preliminary screening) is “considerable inhibitory activity”.

On to `Cc1ccc2[nH]c3c(c2c1)C[C@@]1(C)C(CC[C@]2(C)C1CC=C1C4[C@@H](C)[C@H](C)CC[C@]4(C(=O)NCCCCN)CC[C@]12C)C3(C)C` (some centres unmarked) [6a, N-(4-Aminobutyl)-5′-methyl-1′H-ursa-2,12-dieno[3,2-b]indol-28-carboxamide], for which the melting point (in general, the temperature, or range, at which the solid turns liquid) was 256 to 258 °C. In addition, it took 15.2 ± 1.15 µM to reach half-maximal inhibition in data set [1] (IC50). This molecule also showed an IC50 in data set [2] of 1.32 ± 0.21 µM. Also, the IC50 in data set [2] (Homo sapiens, HepG2, 48 h) was approximately 1 µM. This molecule also registered an IC50 in data set [3] of 1.21 ± 0.19 µM. The same molecule returned an IC50 in data set [3] (Homo sapiens, SMMC-7721, 48 h) of approximately 1 µM. In data set [5], the inhibition at 20 µM came to 27% and the inhibition at 100 µM is 71.1%. For the same molecule, in data set [7], the inhibition at 20 µM came out at 13.7% and the inhibition at 100 µM was 28.8%.

`CCN(CC)CCCCNC(=O)[C@]12CC[C@@H](C)[C@H](C)C1C1=CCC3[C@@]4(C)Cc5c([nH]c6ccc(C)cc56)C(C)(C)C4CC[C@@]3(C)[C@]1(C)CC2` (some centres unmarked) [6c, N-(4-(Diethylamino)butyl)-5′-methyl-1′H-ursa-2,12-dieno[3,2-b]indol-28-carboxamide]: the melting point was in the range of 132 to 134 °C. In addition, in data set [1], inhibition was half-maximal at 28.4 ± 2.98 µM (IC50). The molecule also showed an IC50 in data set [2] (Homo sapiens, HepG2, 48 h) of 3.45 ± 0.25 µM. Besides, the midpoint of inhibition in data set [3] (Homo sapiens, SMMC-7721, 48 h), the IC50, lay at 3.62 ± 0.23 µM. Moreover, in data set [5], the inhibition at 20 µM was 35.2% and the inhibition at 100 µM amounted to 70%. Further, in data set [7], the inhibition at 20 µM was determined as 0% and the inhibition at 100 µM stood at 16.8%.
